Test results from BindingDB's records for doi:10.1016/s0742-8413(97)00614-2 (University of Montana, 1997).
pKi: −log10 of the molar value.

Molecular target: T1, 5-hydroxytryptamine receptor 1A (Oryctolagus cuniculus, UniProt Q9MZ11)
T1 sequence (Q9MZ11 whole entry): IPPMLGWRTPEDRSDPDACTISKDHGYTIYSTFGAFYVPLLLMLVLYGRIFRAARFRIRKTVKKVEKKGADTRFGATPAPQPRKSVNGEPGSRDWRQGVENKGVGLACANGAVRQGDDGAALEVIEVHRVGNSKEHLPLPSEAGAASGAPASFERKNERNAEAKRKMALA

SMILES | pKi
C=C1C(=O)O[C@H]2[C@H]1CC/C(C)=C\CC[C@@]1(C)O[C@@H]21 | < 5.00
O=C1NCN(c2ccccc2)C12CCN(CC1COc3ccccc3O1)CC2 (stereo unspecified) [8-(2,3-Dihydro-benzo[1,4]dioxin-2-ylmethyl)-1-phenyl-1,3,8-triaza-spiro[4.5]decan-4-one] | 8.62
CSc1ccc2c(c1)C(N1CCN(C)CC1)Cc1ccccc1S2 (stereo unspecified) [methanesulfonic acid;1-methyl-4-(3-methylsulfanyl-5,6-dihydrobenzo[b][1]benzothiepin-5-yl)piperazine] | 6.09
NCCc1ccc(O)c(O)c1 | 5.11
COc1cccc(OC)c1OCCNCC1Oc2ccccc2OC1c1ccccc1 (stereo unspecified) [NSC_185453] | 8.52
FC(F)(F)c1cccc(N2CCNCC2)c1 [TFMPP] | 6.89
